Measurements published in patent US8119633B2, “Substituted sulfonamide compounds” (Gruenenthal GmbH, priority 2007, dated 2012).

Assays:
[1] = molecular target: T1, human bradykinin receptor 1 (B1R) (Homo sapiens, UniProt P46663); assay: Functional study on the bradykinin receptor 1 (B1R), human: FLIPR Ca2+ influx assay; assay type: cell-based; details: test substance 10 μM, CHO K1 cells transfected with human B1R, Lys-Des-Arg9-bradykinin at EC80, Ca2+ influx (Fluo-4, FLIPR); for inhibition at 10 µM: read-out: B1R antagonism, human [10 μM] % inhibition
T1 construct: expressed in transfected cells; host or cells: CHO K1 cells
T1 sequence (P46663 1-353): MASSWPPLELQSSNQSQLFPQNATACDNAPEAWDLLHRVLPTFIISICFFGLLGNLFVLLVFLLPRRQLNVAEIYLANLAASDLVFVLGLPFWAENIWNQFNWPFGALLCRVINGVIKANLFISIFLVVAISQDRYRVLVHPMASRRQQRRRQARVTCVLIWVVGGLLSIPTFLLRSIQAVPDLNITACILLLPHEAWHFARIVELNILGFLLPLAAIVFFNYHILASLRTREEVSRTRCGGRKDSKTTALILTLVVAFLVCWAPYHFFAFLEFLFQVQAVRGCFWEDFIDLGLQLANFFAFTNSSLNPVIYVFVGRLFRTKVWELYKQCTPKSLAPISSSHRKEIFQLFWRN
Summary of the method: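 CHO K1 cells stably expressing human B1R were loaded with Fluo-4, and Ca2+ fluorescence was read on FLIPR (ex 488/em 540 nm). Compound was added first (10 μM for % activation against Lys-Des-Arg9-bradykinin ≥0.5 nM). After 10-20 min, Lys-Des-Arg9-bradykinin was added at EC80 for % inhibition; IC50 came from concentration series, n=2-3, N≥2.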

[2] = molecular target: T2, bradykinin receptor 1 (B1R) of the rat (Rattus norvegicus, UniProt P97583); assay: Functional study on the bradykinin receptor 1 (B1R), rat: FLIPR Ca2+ influx assay; assay type: cell-based; details: test substance 10 μM, CHO K1 cells transfected with rat B1R, Des-Arg9-bradykinin at EC80, Ca2+ influx (Fluo-4, FLIPR); for inhibition at 10 µM: read-out: B1R antagonism, rat [10 μM] % inhibition
T2 construct: expressed in transfected cells; host or cells: CHO K1 cells
T2 sequence (P97583 1-337): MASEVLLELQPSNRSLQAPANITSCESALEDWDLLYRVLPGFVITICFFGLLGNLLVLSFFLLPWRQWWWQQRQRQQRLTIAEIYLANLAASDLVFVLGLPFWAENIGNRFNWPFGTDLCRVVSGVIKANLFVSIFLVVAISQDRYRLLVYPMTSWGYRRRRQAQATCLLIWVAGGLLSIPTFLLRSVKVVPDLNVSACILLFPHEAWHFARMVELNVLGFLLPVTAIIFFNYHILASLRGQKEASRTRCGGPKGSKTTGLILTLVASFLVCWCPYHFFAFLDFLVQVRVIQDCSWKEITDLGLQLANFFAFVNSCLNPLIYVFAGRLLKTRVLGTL
Summary of the method: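 CHO K1 cells stably expressing rat B1R, Fluo-4-loaded, read on FLIPR (ex 488/em 540 nm, peak fluorescence). Test substances added first (agonism vs 10 μM Des-Arg9-bradykinin), then after 10-20 min Des-Arg9-bradykinin at EC80; % inhibition and IC50 from concentration series, n=2-3, N≥2.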

human μ-opiate receptor = molecular target: T3, human μ-opiate receptor (Homo sapiens, UniProt P35372); assay: Affinity for the human μ-opiate receptor ([3H]-naloxone displacement, SPA); details: test substance 1 μmol/l, inhibition of specific [3H]-naloxone binding, CHO-K1 receptor membrane preparation; for inhibition at 1 µM: read-out: μ-Opioid receptor [1 μM] % inhibition
T3 construct: purchased PerkinElmer Life Sciences, Zaventem, Belgium RB-HOM; host or cells: CHO-K1 cells (membrane preparation)
Summary of the method: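 Membranes from CHO-K1 cells expressing human μ-opiate receptor were incubated 90 min at room temperature with 1 nmol/l [3H]-naloxone and WGA-SPA beads in 50 mmol/l Tris-HCl with 0.06% BSA; non-specific binding was defined with 100 μmol/l naloxone. Percent inhibition was measured at 1 μmol/l, IC50 was derived from concentration series, and Ki was obtained by Cheng-Prusoff.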

T3 sequence (P35372 whole entry): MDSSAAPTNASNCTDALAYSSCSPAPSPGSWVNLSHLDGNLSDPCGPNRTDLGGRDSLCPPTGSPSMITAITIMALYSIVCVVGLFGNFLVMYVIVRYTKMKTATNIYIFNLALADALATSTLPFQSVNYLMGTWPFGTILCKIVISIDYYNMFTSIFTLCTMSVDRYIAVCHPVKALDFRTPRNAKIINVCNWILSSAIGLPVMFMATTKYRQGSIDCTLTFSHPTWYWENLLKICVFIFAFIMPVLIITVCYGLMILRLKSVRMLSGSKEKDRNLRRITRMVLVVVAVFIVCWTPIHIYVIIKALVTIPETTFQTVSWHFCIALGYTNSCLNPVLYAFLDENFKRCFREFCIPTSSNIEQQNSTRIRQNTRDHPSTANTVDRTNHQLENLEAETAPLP

Compound | inhibition at 10 µM [1] [%] | inhibition at 10 µM [2] [%] | inhibition at 1 µM (human μ-opiate receptor) [%] | B1R antagonism, human [10 μM] % inhibition [1] [%] | B1R antagonism, rat [10 μM] % inhibition [2] [%] | μ-Opioid receptor [1 μM] % inhibition (human μ-opiate receptor) [%]
O=C(CC1CCCCN1S(=O)(=O)c1ccc(Cl)c(Cl)c1)NC1CCC(C(CCc2ccccc2)N2CCCCC2)CC1 (stereo not drawn) [Example 86, 2-[1-(3,4-dichloro-benzenesulfonyl)-piperidin-2-yl]-N-[4-(3-phenyl-1-piperidin-1-yl-propyl)-cyclohexyl]-acetamide] | 101 | 30 | 54 | – | – | –
O=C(CC1CCCCN1S(=O)(=O)c1ccc(Cl)c(Cl)c1)NC1CCC(C(CCc2ccccc2)N2CCOCC2)CC1 (stereo not drawn) [Example 87, 2-[1-(3,4-dichloro-benzenesulfonyl)-piperidin-2-yl]-N-[4-(1-morpholin-4-yl-3-phenyl-propyl)-cyclohexyl]-acetamide] | 96.8 | 25 | 38 | – | – | –
3-(1-(4-chloro-2,5-dimethylphenylsulfonyl)piperidin-2-yl)-1-(4-((4-methyl-piperazin-1-yl)(phenyl)methyl)piperidin-1-yl)propan-1-one [Example 122] | – | – | – | 98 | 40 | 47
CN1CCN(C(c2ccccc2)C2CCC(NC(=O)CC3C(=O)NCCN3S(=O)(=O)c3ccc(Cl)cc3Cl)CC2)CC1 (stereo not drawn) [Example 61, 2-[1-(2,4-dichloro-benzenesulfonyl)-3-oxo-piperazin-2-yl]-N-{4-[(4-methyl-piperazin-1-yl)-phenyl-methyl]-cyclohexyl}-acetamide] | 104 | 39 | 34 | – | – | –
O=C(CC1CCCN1S(=O)(=O)c1ccc(Cl)c(Cl)c1)NC1CCC(C(CCc2ccccc2)N2CCCCC2)CC1 (stereo not drawn) [Example 77, 2-(1-(3,4-dichlorophenylsulfonyl)pyrrolidin-2-yl)-N-(4-(3-phenyl-1-(piperidin-1-yl)propyl)cyclohexyl)acetamide] | 102 | 1 | 35 | – | – | –
O=C(CC1CCCN1S(=O)(=O)c1ccc(Cl)c(Cl)c1)NCC1CCC(C(c2ccccc2)N2CCOCC2)CC1 (stereo not drawn) [Example 73, 2-[1-(3,4-dichloro-benzenesulfonyl)-pyrrolidin-2-yl]-N-[4-(morpholin-4-yl-phenyl-methyl)-cyclohexylmethyl]-acetamide] | 76.3 | 36 | 17 | – | – | –
O=C(CC1CCCCN1S(=O)(=O)c1ccc(Cl)c(Cl)c1)NCC1CCC(C(CCc2ccccc2)N2CCCC2)CC1 (stereo not drawn) [Example 84, 2-[1-(3,4-dichloro-benzenesulfonyl)-piperidin-2-yl]-N-[4-(3-phenyl-1-pyrrolidin-1-yl-propyl)-cyclohexylmethyl]-acetamide] | 95.4 | 19 | 90 | – | – | –
O=C1NCCN(S(=O)(=O)c2ccc(Cl)cc2Cl)C1CC(=O)N1CCCCC1C(Cc1ccccc1)N1CCOCC1 (stereo not drawn) [Example 63, 4-(2,4-dichlorophenylsulfonyl)-3-(2-(2-(1-morpholino-2-phenylethyl)piperidin-1-yl)-2-oxoethyl)piperazin-2-one] | 28.6 | -3 | 47 | – | – | –
O=C(CC1CCCN1S(=O)(=O)c1ccc(Cl)c(Cl)c1)NC1CCC(C(c2ccccc2)N2CCOCC2)CC1 (stereo not drawn) [Example 104, 2-(1-(3,4-dichlorophenylsulfonyl)pyrrolidin-2-yl)-N-(4-(morpholino(phenyl)methyl)cyclohexyl)acetamide] | 32.8 | 13 | 11 | – | – | –
CN1CCN(C(c2ccc(F)cc2)C2CCN(C(=O)CC3CCCCN3S(=O)(=O)c3cccc(C(F)(F)F)c3)CC2)CC1 (stereo not drawn) [Example 109, 1-(4-((4-fluorophenyl)(4-methylpiperazin-1-yl)methyl)piperidin-1-yl)-2-(1-(3-(trifluoromethyl)phenylsulfonyl)piperidin-2-yl)ethanone] | 102 | 99 | 5 | – | – | –
CN1CCN(C(c2ccccc2)C2CCC(NC(=O)CC3CCCCN3S(=O)(=O)c3ccc(Cl)c(Cl)c3)CC2)CC1 (stereo not drawn) [Example 88, 2-[1-(3,4-dichloro-benzenesulfonyl)-piperidin-2-yl]-N-{4-[(4-methyl-piperazin-1-yl)-phenyl-methyl]-cyclohexyl}-acetamide] | 101 | 61 | 58 | – | – | –
N-(3-(4-(1-(4-methylpiperazin-1-yl)-3-phenylpropyl)piperidin-1-yl)-3-oxo-1-phenylpropyl)naphthalene-2-sulfonamide [Example 113] | – | – | – | 97 | 39 | 21
COc1cc(C)c(S(=O)(=O)N(C)CCCNC(=O)NCC2CCC(C(c3ccccc3)N(C)C)CC2)c(C)c1C (stereo not drawn) [Example 2] | – | – | – | 55.6 | 43 | 97
CN1CCN(C(c2ccccc2)C2CCC(NC(=O)CC3C(=O)Nc4ccccc4N3S(=O)(=O)c3ccc(Cl)c(Cl)c3)CC2)CC1 (stereo not drawn) [Example 70, 2-[1-(3,4-dichloro-benzenesulfonyl)-3-oxo-1,2,3,4-tetrahydro-quinoxalin-2-yl]-N-{4-[(4-methyl-piperazin-1-yl)-phenyl-methyl]-cyclohexyl}-acetamide] | 104 | 98 | 11 | – | – | –
CN(C)C(c1ccccc1)C1CCC(CNC(=O)CC2CCCCN2S(=O)(=O)c2cccc(C(F)(F)F)c2)CC1 (stereo not drawn) [Example 8, N—((4-((Dimethylamino)(phenyl)methyl)cyclohexyl)methyl)-2-(1-(3-(trifluoromethyl)phenylsulfonyl)piperidin-2-yl)acetamide] | 71.4 | 9 | 94 | – | – | –
O=C(CC1C(=O)Nc2ccccc2N1S(=O)(=O)c1ccc(Cl)c(Cl)c1)NCC1CCC(C(c2ccccc2)N2CCOCC2)CC1 (stereo not drawn) [Example 64, 2-[1-(3,4-dichloro-benzenesulfonyl)-3-oxo-1,2,3,4-tetrahydro-quinoxalin-2-yl]-N-[4-(morpholin-4-yl-phenyl-methyl)-cyclohexylmethyl]-acetamide] | 104 | 29 | 10 | – | – | –
4-(Dimethylaminophenylmethyl)piperidin-1-carboxylic acid {3-[(4-methoxy-2,3,6-trimethylbenzenesulfonyl)methylamino]propyl}amide [Example 4] | – | – | – | 54.8 | 95 | 100
O=C(CC1CCCCN1S(=O)(=O)c1ccc(Cl)c(Cl)c1)NCC1CCC(C(CCc2ccccc2)N2CCOCC2)CC1 (stereo not drawn) [Example 83, 2-[1-(3,4-dichloro-benzenesulfonyl)-piperidin-2-yl]-N-[4-(1-morpholin-4-yl-3-phenyl-propyl)-cyclohexylmethyl]-acetamide] | 37 | -3 | 22 | – | – | –
O=C(CC1CCCN1S(=O)(=O)c1ccc(Cl)c(Cl)c1)NCC1CCC(C(c2ccccc2)N2CCCC2)CC1 (stereo not drawn) [Example 76, 2-[1-(3,4-dichloro-benzenesulfonyl)-pyrrolidin-2-yl]-N-[4-(phenyl-pyrrolidin-1-ylmethyl)-cyclohexylmethyl]-acetamide] | 80.4 | 9 | 84 | – | – | –
